Results reported in article PMC6254802, “Development of a High-Throughput Assay for Screening of γ-Secretase Inhibitor with Endogenous Human, Mouse or Drosophila γ-Secretase” (Molecules, 2009).
Where two headings read alike, the source gives them in different places.

Key:
[1] = molecular target: T1, drosophila γ-secretase (Drosophila melanogaster, UniProt O02194); test: Fluorogenic substrate assay with drosophila γ-secretase from S2 cell membrane; type: biochemical
T1 construct: membrane containing drosophila or mouse γ-secretase was isolated from S2 cells or mouse cortex, respectively; host or cells: Drosophila Schneider 2 (S2) cells, membrane fraction

[2] = molecular target: T2, human γ-secretase (Homo sapiens, UniProt P49768); test: Fluorogenic substrate assay with endogenous human γ-secretase from HEK293T cell membrane; type: biochemical; conditions: for IC50: 10 μg membrane protein, 6 μM substrate, 5 h, 37 °C, mean ± SEM; for maximal inhibition: human γ-secretase, relative to 1 μM L685,458 = 100%
T2 construct: endogenously expressing human γ-secretase from HEK293T cell membrane; endogenous in cells; host or cells: HEK293T cells (membrane fraction, solubilised with 0.25% CHAPSO)
Description: All procedures were carried out at 4 °C. […] Mouse cortex was homogenized with 15 stokes of pestle A in the same lysis buffer. The homogenates were centrifuged at 800 g for 10 min to remove nuclei and large debris. The supernatants were centrifuged at 25,000 g for 1 h at 4 °C and the membrane pellets were resuspended in reaction buffer containing 50 mM Tris-HCl (pH 6.8), 2 mM EDTA, 150 mM KCl and Complete^TM protease inhibitor cocktail.
For assay optimization, aliquots of membrane protein (5~30 μg) was added to each well of a 96-well plate with various concentrations of fluorogenic substrate (4~8 μM). Different concentrations of compounds were added and the final reaction system was adjusted to 100 μL/well with the reaction buffer. The plate was incubated at 37 °C in a humidified atmosphere for indicated time periods. Fluorescence was measured using a BIOTEK FLX800 microplate reader with the excitation wavelength at 355 nm and the emission wavelength at 440 nm. The activity of γ-secretase was presented as the relative fluorescent unit (RFU). For compound screening, 1 μM of L685,458 was used as a positive control, and 1% DMSO was used as negative control.
(§1) Data were analyzed with GraphPad Prism software (GraphPad, San Diego, CA, USA). Non-linear regression analyses were performed to generate dose-response curves and calculate IC50 values, and linear regression was used to analyze data reproducibility. Mean ± SEM was calculated automatically with this software. Z’ factor was calculated by the following equation: Z’ = 1 - (3SD++3SD-) / │Ave+ - Ave-│ in which SD+ is the standard deviation of positive control, SD-is the standard deviation of negative control, Ave+ is the mean value of the positive control, and Ave-is the mean value of the negative control.

[3] = molecular target: mouse γ-secretase; test: Fluorogenic substrate assay with mouse γ-secretase from mouse cortex membrane; type: biochemical; conditions: mean ± SEM, n = 3
Description: All procedures were carried out at 4 °C. HEK 293T or S2 cells were washed with ice-cold PBS by centrifugation at 500 g for 5 min and the pellets were homogenized with a Dounce homogenizer (pestle B, 15 strokes) in lysis buffer contained 5 mM Tris-HCl (pH 7.4), 5 mM EDTA, 5 mM EGTA and Complete^TM protease inhibitor cocktail. Mouse cortex was homogenized with 15 stokes of pestle A in the same lysis buffer. The homogenates were centrifuged at 800 g for 10 min to remove nuclei and large debris. The supernatants were centrifuged at 25,000 g for 1 h at 4 °C and the membrane pellets were resuspended in reaction buffer containing 50 mM Tris-HCl (pH 6.8), 2 mM EDTA, 150 mM KCl and Complete^TM protease inhibitor cocktail. After measuring the protein concentration, the membranes were diluted to 1 mg/ml in 50 mM Tris-HCl, pH 6.8, 2 mM EDTA, 150 mM KCl, 0.25% CHAPSO.
For assay optimization, aliquots of membrane protein (5~30 μg) was added to each well of a 96-well plate with various concentrations of fluorogenic substrate (4~8 μM). Different concentrations of compounds were added and the final reaction system was adjusted to 100 μL/well with the reaction buffer. The plate was incubated at 37 °C in a humidified atmosphere for indicated time periods. Fluorescence was measured using a BIOTEK FLX800 microplate reader with the excitation wavelength at 355 nm and the emission wavelength at 440 nm. The activity of γ-secretase was presented as the relative fluorescent unit (RFU). For compound screening, 1 μM of L685,458 was used as a positive control, and 1% DMSO was used as negative control. The inhibition rate of each compound was calculated with the following equation: InhibitionCompound % = (Average Value1%DMSO-Average Value Compound)/(Average Value1%DMSO-Average ValueL685,458) × 100%. So the inhibition rate of 1 μM L685,458 is 100% and that of 1% DMSO is 0. The samples showing more than 60% inhibition were considered as “hits” in the screening.
as §1

[4] = molecular target: γ-secretase; design: method as in PMID 10913280; conditions: HTRF assay; read-out: Reported IC50; cited from earlier work
[5] = molecular target: γ-secretase (Aβ40, Aβ42); design: method as in PMID 11574530; conditions: immunoblotting assay, cited from earlier work
[6] = molecular target: γ-secretase; design: method as in PMID 16569643; conditions: in vitro γ-secretase assay; read-out: Reported IC50; cited from earlier work
[7] = tested on: Sup-T1 NICT; design: method as in PMID 15319485; conditions: Sup-T1 NICT assay; read-out: Reported IC50; cited from earlier work
[8] = molecular target: γ-secretase (Aβ40, Aβ42); design: method as in PMID 15341524; conditions: Aβ ELISA assay, cited from earlier work
[9] = molecular target: γ-secretase (Aβ); conditions: In vivo γ-secretase assay; read-out: Reported IC50 (Aβ); cited from earlier work
[10] = tested on: Aβ1-42; design: method as in PMID 10882355; conditions: read-out: Reported IC50 (Aβ1-42); cited from earlier work
[11] = S2 cell membrane, mean ± SEM, n = 3, read-out: drosophila γ-secretase IC50

T1 sequence (O02194 whole entry): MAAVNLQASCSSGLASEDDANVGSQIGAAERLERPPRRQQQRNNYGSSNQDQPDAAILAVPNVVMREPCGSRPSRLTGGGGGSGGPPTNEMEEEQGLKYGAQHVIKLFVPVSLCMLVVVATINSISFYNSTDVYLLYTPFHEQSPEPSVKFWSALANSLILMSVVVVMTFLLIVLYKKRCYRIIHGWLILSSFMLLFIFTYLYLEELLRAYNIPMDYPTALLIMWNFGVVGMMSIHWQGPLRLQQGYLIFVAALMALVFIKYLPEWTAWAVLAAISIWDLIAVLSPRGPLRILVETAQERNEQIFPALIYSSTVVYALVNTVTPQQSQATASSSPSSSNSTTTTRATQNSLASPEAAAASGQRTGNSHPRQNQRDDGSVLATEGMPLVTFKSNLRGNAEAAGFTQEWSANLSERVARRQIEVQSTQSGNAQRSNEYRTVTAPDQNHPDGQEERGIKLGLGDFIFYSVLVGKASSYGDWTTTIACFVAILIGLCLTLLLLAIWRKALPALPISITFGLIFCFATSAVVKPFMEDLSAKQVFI
T1 sequence (Q9VC27 23-695 partner): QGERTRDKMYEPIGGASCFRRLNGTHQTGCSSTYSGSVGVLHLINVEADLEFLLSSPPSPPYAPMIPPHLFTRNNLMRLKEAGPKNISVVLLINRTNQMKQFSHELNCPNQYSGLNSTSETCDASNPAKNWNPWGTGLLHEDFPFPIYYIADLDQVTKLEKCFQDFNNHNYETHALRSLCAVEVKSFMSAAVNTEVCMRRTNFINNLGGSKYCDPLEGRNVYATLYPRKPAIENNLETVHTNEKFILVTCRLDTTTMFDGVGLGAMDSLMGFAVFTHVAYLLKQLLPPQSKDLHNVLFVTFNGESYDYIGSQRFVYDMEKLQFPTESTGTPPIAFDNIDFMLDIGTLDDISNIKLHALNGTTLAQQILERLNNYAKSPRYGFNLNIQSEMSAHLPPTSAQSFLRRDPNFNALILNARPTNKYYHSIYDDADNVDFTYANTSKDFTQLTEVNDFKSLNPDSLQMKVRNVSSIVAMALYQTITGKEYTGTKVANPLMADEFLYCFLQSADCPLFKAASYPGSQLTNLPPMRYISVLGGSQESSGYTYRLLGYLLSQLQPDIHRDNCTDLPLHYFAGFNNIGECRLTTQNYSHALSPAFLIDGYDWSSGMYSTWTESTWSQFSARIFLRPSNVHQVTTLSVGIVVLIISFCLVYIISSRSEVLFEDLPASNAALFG
T1 sequence (Q9VQG2 whole entry partner): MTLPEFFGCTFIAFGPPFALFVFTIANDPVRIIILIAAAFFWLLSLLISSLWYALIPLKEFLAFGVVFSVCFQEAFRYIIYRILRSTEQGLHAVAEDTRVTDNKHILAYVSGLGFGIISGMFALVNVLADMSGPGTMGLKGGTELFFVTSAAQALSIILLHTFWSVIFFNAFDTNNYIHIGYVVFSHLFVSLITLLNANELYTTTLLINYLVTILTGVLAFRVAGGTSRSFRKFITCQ
T1 sequence (Q86BE9 whole entry partner): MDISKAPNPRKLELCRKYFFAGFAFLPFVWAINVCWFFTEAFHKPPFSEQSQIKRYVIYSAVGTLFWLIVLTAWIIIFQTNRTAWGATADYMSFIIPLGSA

| Structure (SMILES) | IC50 [1, 11] | IC50 [2] | IC50 [3] | IC50 [4] | IC50 ([5]; read-out: Reported IC50 (Aβ40)) | IC50 ([5]; read-out: Reported IC50 (Aβ42)) | IC50 [6] | maximal inhibition [2] | IC50 [7] | IC50 ([8]; read-out: Reported IC50 (Aβ40)) | IC50 ([8]; read-out: Reported IC50 (Aβ42)) | IC50 [9] | IC50 [1] | IC50 [10] |
| --- | --- | --- | --- | --- | --- | --- | --- | --- | --- | --- | --- | --- | --- | --- |
| CC(C)C[C@H](NC(=O)[C@H](Cc1ccccc1)C[C@@H](O)[C@H](Cc1ccccc1)NC(=O)OC(C)(C)C)C(=O)N[C@@H](Cc1ccccc1)C(N)=O [L685,458] | 10.3 ± 1.66 nM | 4.43 ± 0.969 nM | 0.976 ± 0.147 nM | 17 nM | 4 nM | 8 nM | 3 nM |  |  |  |  |  |  |  |
| C[C@H](NC(=O)Cc1cc(F)cc(F)c1)C(=O)N[C@@H]1C(=O)N(C)c2ccccc2-c2ccccc21 [DBZ] | 6.97 ± 1.98 nM | 12.5 ± 5.76 nM | 1.45 ± 0.435 nM |  |  |  |  | 95.2% | 1.7 nM |  |  |  |  |  |
| C[C@H](NC(=O)Cc1cc(F)cc(F)c1)C(=O)N[C@H](C(=O)OC(C)(C)C)c1ccccc1 [DAPT, N-[N-(3,5-difluorophenacetyl)-L-alanyl]-S-phenylglycine t-butyl ester] |  | 3910 ± 551 nM |  |  |  |  |  | 69.7% |  | 1600 nM | 4000 nM |  |  |  |
| COC(=O)[C@@H](NC(=O)[C@H](CC(C)C)NC(=O)N(Cc1ccccc1)C[C@@H](O)[C@H](Cc1ccccc1)NC(=O)OC(C)(C)C)C(C)C [31C] | 0.933 ± 0.169 nM | 53.5 ± 13.6 nM | 20.7 ± 5.24 nM |  |  |  |  | 103.1% |  |  |  | 300 nM |  |  |
| C[C@H](NC(=O)Cc1cc(F)cc(F)c1)C(=O)N[C@H]1N=C(c2ccccc2)c2ccccc2N(C)C1=O [Compound E] |  | 53.9 ± 5.31 nM | 2.4 ± 0.605 nM |  | 0.24 nM | 0.37 nM | 7 nM | 92.3% |  | 0.8 nM | 7 nM |  | 40.5 ± 7 nM |  |
| CC12CCC(C1)C(C)(C)C2NS(=O)(=O)c1ccc(F)cc1 (stereo not drawn) [Inhibitor VI] |  | 44500 ± 25600 nM |  |  |  |  |  | 67.3% |  |  |  |  |  | 1800 nM |
